From patent US20230159510A1, “NOVEL PRMT5 INHIBITORS” (AMGEN INC., priority 2020, published 2023)
Values belong to the compound of their own block, whether it stands above or below them.

Assays:
HCT116 MTAP null cells = assay: HCT116 proliferation assay, MTAP null cells (CellTiter-Glo, 6 days); format: cell-based; conditions: HCT116-MTAP null, 144 h, read-out: Protif_ HCT116-MTAP null IC50
How it was run: (§1)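 Luminescent viability signal was measured after continuous drug exposure. Before dosing, cells attached overnight (37° C, 5% CO2) in RPMI 1640 + 10% FBS. Dosing used 1:3 steps over 8 or 9 points, starting at 1 or 10 µM, with DMSO-only wells as control.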

HCT116 WT cells = assay: HCT116 proliferation assay, WT cells (CellTiter-Glo, 6 days); format: cell-based; conditions: Homo sapiens, HCT-116, 144 h, read-out: Prolif_HCT116-WT IC50
How it was run: as §1

SMILES: COC[C@H](C1CC1)N(Cc1ccc(N2CCOCC2)nn1)C(=O)c1ccc2nc(N)c(Br)cc2c1 [Example 732, 2-amino-3-bromo-N-((1S)-1-cyclopropyl-2-methoxyethyl)-N-((6-(4-morpholinyl)-3-pyridazinyl)methyl)-6-quinolinecarboxamide]
IC50 (HCT116 MTAP null cells): 231 nM | IC50 (HCT116 WT cells): > 10000 nM

SMILES: COC[C@@H](C)N(Cc1ccc(C#N)cn1)C(=O)c1ccc2nc(N)c(Br)cc2c1 [Example 733, 2-amino-3-bromo-N-((5-cyano-2-pyridinyl)methyl)-N-((2R)-1-methoxy-2-propanyl)-6-quinolinecarboxamide]
IC50 (HCT116 MTAP null cells): 434 nM | IC50 (HCT116 WT cells): > 10000 nM

SMILES: Cc1cc2cc(C(=O)N(CCOC(F)(F)F)Cc3ccc(C(F)(F)F)cn3)ccc2nc1N [Example 734, 2-amino-3-methyl-N-(2-(trifluoromethoxy)ethyl)-N-((5-(trifluoromethyl)-2-pyridinyl)methyl)-6-quinolinecarboxamide]
IC50 (HCT116 MTAP null cells): 994 nM | IC50 (HCT116 WT cells): > 10000 nM

SMILES: N#Cc1ccc(CN(C(=O)c2ccc3nc(N)c(Br)cc3c2)[C@@H](c2ncccn2)C2CC2)nc1 [Example 738, 2-amino-3-bromo-N-((5-cyano-2-pyridinyl)methyl)-N-((R)-cyclopropyl(2-pyrimidinyl)methyl)-6-quinolinecarboxamide]
IC50 (HCT116 MTAP null cells): 173 nM | IC50 (HCT116 WT cells): 4300 nM

SMILES: Cc1cc2cc(C(=O)N(Cc3cc4c(cn3)OCCC4)C(C)c3ncccn3)ccc2nc1N (stereo not shown) [Example 741, 2-amino-N-((3,4-dihydro-2H-pyrano[2,3-c]pyridin-6-yl)methyl)-3-methyl-N-(1-(pyrimidin-2-yl)ethyl)quinoline-6-carboxamide]
IC50 (HCT116 MTAP null cells): 270 nM | IC50 (HCT116 WT cells): 8360 nM

SMILES: C[C@H](c1ncccn1)N(Cc1cc(Cl)c(C#N)cn1)C(=O)c1ccc2nc(N)c(Br)cc2c1 [Example 745, (R)-2-amino-3-bromo-N-((4-chloro-5-cyanopyridin-2-yl)methyl)-N-(1-(pyrimidin-2-yl)ethyl)quinoline-6-carboxamide]
IC50 (HCT116 MTAP null cells): 223 nM | IC50 (HCT116 WT cells): 1240 nM

SMILES: Cc1cc2cc(C(=O)N(Cc3ccc(C#N)c(C)n3)[C@H](C)c3ncccn3)ccc2nc1N [Example 750, 2-amino-N-((5-cyano-6-methyl-2-pyridinyl)methyl)-3-methyl-N-((1R)-1-(2-pyrimidinyl)ethyl)-6-quinolinecarboxamide]
IC50 (HCT116 MTAP null cells): 177 nM | IC50 (HCT116 WT cells): 3140 nM

SMILES: CO[C@@H]1Cc2ccccc2[C@H]1N(Cc1ccc(C(F)(F)F)cn1)C(=O)c1ccc2nc(N)c(C)cc2c1 [Example 751, 2-amino-N-((1R,2R)-2-methoxy-2,3-dihydro-1H-inden-1-yl)-3-methyl-N-((5-(trifluoromethyl)-2-pyridinyl)methyl)-6-quinolinecarboxamide]
IC50 (HCT116 MTAP null cells): 144 nM | IC50 (HCT116 WT cells): 1740 nM

SMILES: CO[C@H]1Cc2ccccc2[C@@H]1N(Cc1ccc(C(F)(F)F)cn1)C(=O)c1ccc2nc(N)c(C)cc2c1 [Example 752, 2-amino-N-((1S,2S)-2-methoxy-2,3-dihydro-1H-inden-1-yl)-3-methyl-N-((5-(trifluoromethyl)-2-pyridinyl)methyl)-6-quinolinecarboxamide]
IC50 (HCT116 MTAP null cells): 119 nM | IC50 (HCT116 WT cells): 1740 nM

SMILES: CC(=O)c1ccc(CN(C(=O)c2ccc3nc(N)c(C)cc3c2)[C@H](C)c2ncccn2)nc1 [Example 754, N-((5-acetyl-2-pyridinyl)methyl)-2-amino-3-methyl-N-((1R)-1-(2-pyrimidinyl)ethyl)-6-quinolinecarboxamide]
IC50 (HCT116 MTAP null cells): 130 nM | IC50 (HCT116 WT cells): 4110 nM

SMILES: Cc1cc2cc(C(=O)N(Cc3ccc(Br)nn3)[C@@H]3CCCn4ncnc43)c(F)cc2nc1N [Example 757, (R)-2-amino-N-((6-bromopyridazin-3-yl)methyl)-7-fluoro-3-methyl-N-(5,6,7,8-tetrahydro-[1,2,4]triazolo[1,5-a]pyridin-8-yl)quinoline-6-carboxamide]
IC50 (HCT116 MTAP null cells): 313 nM | IC50 (HCT116 WT cells): 8870 nM

SMILES: Nc1nc2ccc(C(=O)N(Cc3ccc(Br)nn3)[C@@H]3CCCn4ncnc43)cc2cc1Br [Example 758, (R)-2-amino-3-bromo-N-((6-bromopyridazin-3-yl)methyl)-N-(5,6,7,8-tetrahydro-[1,2,4]triazolo[1,5-a]pyridin-8-yl)quinoline-6-carboxamide]
IC50 (HCT116 MTAP null cells): 337 nM | IC50 (HCT116 WT cells): > 10000 nM

SMILES: CC[C@H](c1ncccn1)N(Cc1ccc(C#N)cn1)C(=O)c1ccc2nc(N)c(Br)cc2c1 [Example 759, (R)-2-amino-3-bromo-N-((5-cyanopyridin-2-yl)methyl)-N-(1-(pyrimidin-2-yl)propyl)quinoline-6-carboxamide]
IC50 (HCT116 MTAP null cells): 293 nM | IC50 (HCT116 WT cells): > 10000 nM

SMILES: CC[C@H](c1ncccn1)N(Cc1ccc(C#N)cn1)C(=O)c1ccc2nc(N)c(I)cc2c1 [Example 760, (R)-2-amino-N-((5-cyanopyridin-2-yl)methyl)-3-iodo-N-(1-(pyrimidin-2-yl)propyl)quinoline-6-carboxamide]
IC50 (HCT116 MTAP null cells): 100 nM | IC50 (HCT116 WT cells): 2930 nM

SMILES: Cc1cc2cc(C(=O)N(Cc3ccc(C4CC4)nn3)[C@H](C)c3ncccn3)ccc2nc1N [Example 761, (R)-2-amino-N-((6-cyclopropylpyridazin-3-yl)methyl)-3-methyl-N-(1-(pyrimidin-2-yl)ethyl)quinoline-6-carboxamide]
IC50 (HCT116 MTAP null cells): 64 nM | IC50 (HCT116 WT cells): 1350 nM

SMILES: C[C@H](c1ncccn1)N(Cc1ccc(C2CC2)nn1)C(=O)c1ccc2nc(N)c(I)cc2c1 [Example 763, (R)-2-amino-N-((6-cyclopropylpyridazin-3-yl)methyl)-3-iodo-N-(1-(pyrimidin-2-yl)ethyl)quinoline-6-carboxamide]
IC50 (HCT116 MTAP null cells): 57 nM | IC50 (HCT116 WT cells): 4340 nM

More lines, now with the values ahead:

IC50 (HCT116 MTAP null cells): 264 nM | IC50 (HCT116 WT cells): 6810 nM
SMILES: Cc1cc2cc(C(=O)N(Cc3ccc(C#N)nn3)[C@H](C)c3ncccc3F)ccc2nc1N [Example 728, 2-amino-N-((6-cyano-3-pyridazinyl)methyl)-N-((1R)-1-(3-fluoro-2-pyridinyl)ethyl)-3-methyl-6-quinolinecarboxamide]

IC50 (HCT116 MTAP null cells): 114 nM | IC50 (HCT116 WT cells): 6900 nM
SMILES: CCOc1ccc(CN(C(=O)c2ccc3nc(N)c(Br)cc3c2)[C@H](C)c2ncccn2)nn1 [Example 729, 2-amino-3-bromo-N-((6-ethoxy-3-pyridazinyl)methyl)-N-((1R)-1-(2-pyrimidinyl)ethyl)-6-quinolinecarboxamide]

IC50 (HCT116 MTAP null cells): 220 nM | IC50 (HCT116 WT cells): > 10000 nM
SMILES: COc1ccc(CN(C(=O)c2cnc3nc(N)c(Br)cc3c2)[C@H](C)c2ncccc2F)nn1 [Example 735, 7-amino-6-bromo-N-((1R)-1-(3-fluoro-2-pyridinyl)ethyl)-N-((6-methoxy-3-pyridazinyl)methyl)-1,8-naphthyridine-3-carboxamide]

IC50 (HCT116 MTAP null cells): 151 nM | IC50 (HCT116 WT cells): 6960 nM
SMILES: COc1ccc(CN(C(=O)c2ccc3nc(N)c(Br)cc3c2)[C@H](C)c2ncccc2F)nn1 [Example 736, 2-amino-3-bromo-N-((1R)-1-(3-fluoro-2-pyridinyl)ethyl)-N-((6-methoxy-3-pyridazinyl)methyl)-6-quinolinecarboxamide]

IC50 (HCT116 MTAP null cells): 148 nM | IC50 (HCT116 WT cells): 6800 nM
SMILES: C[C@H](c1ncccc1F)N(Cc1ccc(C(F)(F)F)nn1)C(=O)c1ccc2nc(N)c(Br)cc2c1 [Example 737, 2-amino-3-bromo-N-((1R)-1-(3-fluoro-2-pyridinyl)ethyl)-N-((6-(trifluoromethyl)-3-pyridazinyl)methyl)-6-quinolinecarboxamide]

IC50 (HCT116 MTAP null cells): 355 nM | IC50 (HCT116 WT cells): > 10000 nM
SMILES: C[C@H](c1ncccc1F)N(Cc1ccc(Br)nn1)C(=O)c1ccc2nc(N)c(Cl)cc2c1 [Example 739, 2-amino-N-((6-bromo-3-pyridazinyl)methyl)-3-chloro-N-((1R)-1-(3-fluoro-2-pyridinyl)ethyl)-6-quinolinecarboxamide]

IC50 (HCT116 MTAP null cells): 80 nM | IC50 (HCT116 WT cells): 4400 nM
SMILES: C[C@H](c1ncccn1)N(Cc1ccc(Br)nn1)C(=O)c1ccc2nc(N)c(Br)cc2c1 [Example 740, (R)-2-amino-3-bromo-N-((6-bromopyridazin-3-yl)methyl)-N-(1-(pyrimidin-2-yl)ethyl)quinoline-6-carboxamide]

IC50 (HCT116 MTAP null cells): 40 nM | IC50 (HCT116 WT cells): 1170 nM
SMILES: Cc1cc2cc(C(=O)N(Cc3ccc(OC(F)F)nn3)C(C)c3ncccn3)ccc2nc1N (stereo not shown) [Example 742, 2-amino-N-((6-(difluoromethoxy)pyridazin-3-yl)methyl)-3-methyl-N-(1-(pyrimidin-2-yl)ethyl)quinoline-6-carboxamide]

IC50 (HCT116 MTAP null cells): 54 nM | IC50 (HCT116 WT cells): 694 nM
SMILES: Cc1c(Br)c(N)nc2ncc(C(=O)N(Cc3ccc(C(F)(F)F)cn3)[C@H](C)c3ncccn3)cc12 [Example 743, (R)-7-amino-6-bromo-5-methyl-N-(1-(pyrimidin-2-yl)ethyl)-N-((5-(trifluoromethyl)pyridin-2-yl)methyl)-1,8-naphthyridine-3-carboxamide]

IC50 (HCT116 MTAP null cells): 188 nM | IC50 (HCT116 WT cells): 4120 nM
SMILES: Cc1c(Br)c(N)nc2ncc(C(=O)N(Cc3ccc(C#N)cn3)[C@H](C)c3ncccn3)cc12 [Example 744, (R)-7-amino-6-bromo-N-((5-cyanopyridin-2-yl)methyl)-5-methyl-N-(1-(pyrimidin-2-y 1)ethy 1)-1 ,8-naphthyridine-3-carboxamide]

IC50 (HCT116 MTAP null cells): 139 nM | IC50 (HCT116 WT cells): 7260 nM
SMILES: C[C@H](c1ncccn1)N(Cc1ccc(OC(F)F)nn1)C(=O)c1ccc2nc(N)c(Br)cc2c1 [Example 746, (R)-2-amino-3-bromo-N-((6-(difluoromethoxy)pyridazin-3-yl)methyl)-N-(1-(pyrimidin-2-yl)ethyl)quinoline-6-carboxamide]

IC50 (HCT116 MTAP null cells): 228 nM | IC50 (HCT116 WT cells): 5950 nM
SMILES: COc1ccc(CN(C(=O)c2ccc3nc(N)c(C)cc3c2)C(C)c2ncn(C)n2)nn1 (stereo not shown) [Example 756, 2-amino-N-((6-methoxypyridazin-3-yl)methyl)-3-methyl-N-(1-(1-methyl-1H-1,2,4-triazol-3-yl)ethyl)quinoline-6-carboxamide]

IC50 (HCT116 MTAP null cells): 180 nM | IC50 (HCT116 WT cells): 8800 nM
SMILES: C[C@H](c1ncccn1)N(Cc1ccc(C2CC2)nn1)C(=O)c1ccc2nc(N)c(Br)cc2c1 [Example 762, (R)-2-amino-3-bromo-N-((6-cyclopropylpyridazin-3-yl)methyl)-N-(1-(pyrimidin-2-yl)ethyl)quinoline-6-carboxamide]
